Experimental data as given in PubChem BioAssay AID248 (DTP/NCI, 2004).
Values joined by “and” are separate entries in the source; they are usually repeats but may differ in a detail not shown here. Equal values may be shown once. Inconclusive results and toxic doses are left out.

Test system: L1210 leukemia ip in BDF1 mice, survival T/C
Assay: NCI In Vivo Anticancer Drug Screen. Data for tumor model L1210 Leukemia (intraperitoneal) in B6D2F1 (BDF1) mice
Conditions: endpoint: mean survival time, higher = longer survival
Summary of the method: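 Tumor was transplanted into mice, which were then dosed with test compound or vehicle alone. Survival was recorded for each group, and the treated figure was expressed relative to the control figure.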

[1] = dose: 100.0 mg/kg/injection, schedule: Q01DX001 (ip), vehicle: saline
[2] = dose: 100.0 mg/kg/injection, schedule: Q01DX009 (ip), vehicle: Klucel (hydroxypropylcellulose) (HPC)
[3] = dose: 100.0 mg/kg/injection, schedule: Q04DX003 (ip), vehicle: Klucel (hydroxypropylcellulose) (HPC)
[4] = dose: 200.0 mg/kg/injection, schedule: Q01DX009 (ip), vehicle: Klucel (hydroxypropylcellulose) (HPC)
[5] = dose: 200.0 mg/kg/injection, schedule: Q04DX003 (ip), vehicle: Klucel (hydroxypropylcellulose) (HPC)
[6] = dose: 400.0 mg/kg/injection, schedule: Q01DX009 (ip), vehicle: Klucel (hydroxypropylcellulose) (HPC)
[7] = dose: 400.0 mg/kg/injection, schedule: Q04DX003 (ip), vehicle: Klucel (hydroxypropylcellulose) (HPC)
[8] = dose: 25.0 mg/kg/injection, schedule: Q01DX009 (ip), vehicle: saline
[9] = dose: 50.0 mg/kg/injection, schedule: Q01DX001 (ip), vehicle: carboxymethylcellulose (CMC)
[10] = dose: 100.0 mg/kg/injection, schedule: Q01DX001 (ip), vehicle: carboxymethylcellulose (CMC)
[11] = dose: 200.0 mg/kg/injection, schedule: Q01DX001 (ip), vehicle: carboxymethylcellulose (CMC)
[12] = dose: 100.0 mg/kg/injection, schedule: Q01DX001 (ip), vehicle: Klucel (hydroxypropylcellulose) (HPC)

COc1ccc(Cl)cc1/C=C/C=O
T/C [1]: 91 % of control | T/C (dose: 200.0 mg/kg/injection, schedule: Q01DX001 (ip), vehicle: saline): 92 % of control | T/C (dose: 400.0 mg/kg/injection, schedule: Q01DX001 (ip), vehicle: saline): 102 % of control

COc1ccccc1NC(=O)Nc1ccc(SC)cc1
T/C [2]: 98 % of control | T/C [3]: 91 % of control | T/C [4]: 103 % of control | T/C [5]: 103 % of control | T/C [6]: 97 % of control | T/C [7]: 96 % of control

CC1(C)CC[N+]1(C)Cc1ccccc1 (stereo not drawn)
T/C (dose: 6.25 mg/kg/injection, schedule: Q01DX009 (ip), vehicle: saline): 95 % of control | T/C (dose: 6.25 mg/kg/injection, schedule: Q04DX003 (ip), vehicle: saline): 90 % of control | T/C (dose: 12.0 mg/kg/injection, schedule: Q01DX001 (ip), vehicle: saline): 102 % of control | T/C (dose: 12.5 mg/kg/injection, schedule: Q01DX009 (ip), vehicle: saline): 109 % of control | T/C (dose: 12.5 mg/kg/injection, schedule: Q04DX003 (ip), vehicle: saline): 101 % of control | T/C (dose: 25.0 mg/kg/injection, schedule: Q01DX001 (ip), vehicle: saline): 97 % of control | T/C [8]: 97 % of control | T/C (dose: 25.0 mg/kg/injection, schedule: Q04DX003 (ip), vehicle: saline): 91 % of control

C/C=C/C(OCC)OCC
T/C (dose: 25.0 mg/kg/injection, schedule: Q01DX009 (ip), vehicle: water): 105 % of control | T/C (dose: 50.0 mg/kg/injection, schedule: Q01DX009 (ip), vehicle: water): 111 % of control | T/C (dose: 100.0 mg/kg/injection, schedule: Q01DX009 (ip), vehicle: water): 106 % of control

O=c1[nH]c(-c2ccccc2)nc2c1OCN(Cc1ccccc1)C2
T/C [9]: 98 % of control | T/C [10]: 101 % of control | T/C [11]: 98 % of control | T/C (dose: 400.0 mg/kg/injection, schedule: Q01DX001 (ip), vehicle: carboxymethylcellulose (CMC)): 93 % of control

O=c1[nH]c(-c2cccc([N+](=O)[O-])c2)nc2[nH]ncc12
T/C (dose: 25.0 mg/kg/injection, schedule: Q01DX001 (ip), vehicle: Klucel (hydroxypropylcellulose) (HPC)): 94 % of control | T/C (dose: 50.0 mg/kg/injection, schedule: Q01DX001 (ip), vehicle: Klucel (hydroxypropylcellulose) (HPC)): 94 % of control | T/C [12]: 98 % of control

Clc1ccc(C=Nc2cccc3ccccc23)c(Cl)c1
T/C [2]: 90 % of control | T/C [4]: 98 % of control | T/C [6]: 93 % of control

CCOC(=O)CCC(NC(=O)c1ccc2c(c1)CCCN2C=O)C(=O)OCC (stereo not drawn)
T/C [3]: 104 % of control | T/C [5]: 103 % of control | T/C [7]: 103 % of control

O=C1OC(=O)c2ccc3c4ccc5c6c(ccc(c7ccc1c2c73)c64)C(=O)OC5=O
T/C [12]: 97 % of control | T/C (dose: 200.0 mg/kg/injection, schedule: Q01DX001 (ip), vehicle: Klucel (hydroxypropylcellulose) (HPC)): 97 % of control | T/C (dose: 400.0 mg/kg/injection, schedule: Q01DX001 (ip), vehicle: Klucel (hydroxypropylcellulose) (HPC)): 95 % of control

Cc1c(C)c(Cl)c(C)c(Cl)c1O
T/C [2]: 94 % of control | T/C [3]: 98 % of control | T/C [4]: 89 % of control | T/C [5]: 93 % of control | T/C [6]: 91 % of control | T/C [7]: 105 % of control

Cc1cccc(NC(=O)N(CCCl)N=O)c1
T/C (dose: 2.6 mg/kg/injection, schedule: Q01DX009 (ip), vehicle: carboxymethylcellulose (CMC)): 163 % of control | T/C (dose: 4.0 mg/kg/injection, schedule: Q01DX009 (ip), vehicle: carboxymethylcellulose (CMC)): 164 % of control and 197 % of control | T/C (dose: 6.0 mg/kg/injection, schedule: Q01DX009 (ip), vehicle: carboxymethylcellulose (CMC)): 150 % of control and 192 % of control | T/C (dose: 25.0 mg/kg/injection, schedule: Q01DX001 (ip), vehicle: carboxymethylcellulose (CMC)): 101 % of control | T/C [9]: 86 % of control | T/C [10]: 86 % of control

Nc1nc(C=O)c(-c2cccc3ccccc23)c(=O)[nH]1
T/C (dose: 100.0 mg/kg/injection, schedule: Q01DX009 (ip), vehicle: saline with Tween-80): 112 % of control | T/C (dose: 200.0 mg/kg/injection, schedule: Q01DX009 (ip), vehicle: saline with Tween-80): 94 % of control

CCC/C(=N/NC(=O)c1ccccc1)c1ccccc1
T/C (dose: 100.0 mg/kg/injection, schedule: Q04DX002 (ip), vehicle: Klucel (hydroxypropylcellulose) (HPC)): 110 % of control | T/C (dose: 200.0 mg/kg/injection, schedule: Q04DX002 (ip), vehicle: Klucel (hydroxypropylcellulose) (HPC)): 110 % of control | T/C (dose: 400.0 mg/kg/injection, schedule: Q04DX002 (ip), vehicle: Klucel (hydroxypropylcellulose) (HPC)): 100 % of control

NP(Cl)(c1ccccc1)(c1ccccc1)c1ccccc1
T/C (dose: 0.2 mg/kg/injection, schedule: Q04DX003 (ip), vehicle: Klucel (hydroxypropylcellulose) (HPC)): 96 % of control | T/C (dose: 0.39 mg/kg/injection, schedule: Q04DX003 (ip), vehicle: Klucel (hydroxypropylcellulose) (HPC)): 99 % of control | T/C (dose: 0.78 mg/kg/injection, schedule: Q04DX003 (ip), vehicle: Klucel (hydroxypropylcellulose) (HPC)): 97 % of control

CCCCC(C#N)C(O)C1CCCCC1 (stereo not drawn)
T/C (dose: 100.0 mg/kg/injection, schedule: Q01DX001 (ip), vehicle: other): 100 % of control | T/C (dose: 200.0 mg/kg/injection, schedule: Q01DX001 (ip), vehicle: other): 103 % of control | T/C (dose: 400.0 mg/kg/injection, schedule: Q01DX001 (ip), vehicle: other): 103 % of control

COc1cc2c(cc1OCc1ccccc1)C=CN(C(=O)c1ccccc1)C2C#N (stereo not drawn)
T/C [8]: 100 % of control | T/C (dose: 50.0 mg/kg/injection, schedule: Q01DX009 (ip), vehicle: saline): 94 % of control | T/C (dose: 100.0 mg/kg/injection, schedule: Q01DX009 (ip), vehicle: saline): 94 % of control | T/C (dose: 200.0 mg/kg/injection, schedule: Q01DX009 (ip), vehicle: saline): 93 % of control | T/C (dose: 400.0 mg/kg/injection, schedule: Q01DX009 (ip), vehicle: saline): 98 % of control

COc1cc(C=Nc2ccc(-c3nc(Cc4ccccc4)sc3C)cc2)ccc1N(CCCl)CCCl
T/C (dose: 4.0 mg/kg/injection, schedule: Q01DX009 (ip), vehicle: saline): 102 % of control | T/C (dose: 6.0 mg/kg/injection, schedule: Q01DX009 (ip), vehicle: Klucel (hydroxypropylcellulose) (HPC)): 109 % of control | T/C (dose: 6.0 mg/kg/injection, schedule: Q01DX009 (ip), vehicle: saline): 103 % of control | T/C (dose: 8.0 mg/kg/injection, schedule: Q01DX009 (ip), vehicle: Klucel (hydroxypropylcellulose) (HPC)): 112 % of control | T/C (dose: 8.0 mg/kg/injection, schedule: Q01DX009 (ip), vehicle: carboxymethylcellulose (CMC)): 124 % of control | T/C (dose: 8.0 mg/kg/injection, schedule: Q01DX009 (ip), vehicle: saline): 102 % of control | T/C (dose: 13.0 mg/kg/injection, schedule: Q01DX001 (ip), vehicle: Klucel (hydroxypropylcellulose) (HPC)): 109 % of control | T/C (dose: 13.0 mg/kg/injection, schedule: Q01DX001 (ip), vehicle: saline): 93 % of control | T/C (dose: 13.0 mg/kg/injection, schedule: Q01DX009 (ip), vehicle: saline): 100 % of control | T/C (dose: 20.0 mg/kg/injection, schedule: Q01DX001 (ip), vehicle: Klucel (hydroxypropylcellulose) (HPC)): 113 % of control | T/C (dose: 20.0 mg/kg/injection, schedule: Q01DX001 (ip), vehicle: saline): 91 % of control | T/C (dose: 20.0 mg/kg/injection, schedule: Q01DX009 (ip), vehicle: carboxymethylcellulose (CMC)): 106 % of control | T/C (dose: 20.0 mg/kg/injection, schedule: Q01DX009 (ip), vehicle: saline): 105 % of control | T/C (dose: 30.0 mg/kg/injection, schedule: Q01DX001 (ip), vehicle: Klucel (hydroxypropylcellulose) (HPC)): 124 % of control | T/C (dose: 30.0 mg/kg/injection, schedule: Q01DX001 (ip), vehicle: saline): 102 % of control | T/C (dose: 30.0 mg/kg/injection, schedule: Q01DX009 (ip), vehicle: Klucel (hydroxypropylcellulose) (HPC)): 153 % of control | T/C (dose: 44.0 mg/kg/injection, schedule: Q01DX001 (ip), vehicle: carboxymethylcellulose (CMC)): 122 % of control | T/C (dose: 45.0 mg/kg/injection, schedule: Q01DX001 (ip), vehicle: Klucel (hydroxypropylcellulose) (HPC)): 121 % of control | T/C (dose: 45.0 mg/kg/injection, schedule: Q01DX001 (ip), vehicle: carboxymethylcellulose (CMC)): 166 % of control | T/C (dose: 45.0 mg/kg/injection, schedule: Q01DX001 (ip), vehicle: saline): 110 % of control | T/C (dose: 66.0 mg/kg/injection, schedule: Q01DX001 (ip), vehicle: saline): 106 % of control | T/C [1]: 112 % of control and 124 % of control | T/C (dose: 150.0 mg/kg/injection, schedule: Q01DX001 (ip), vehicle: carboxymethylcellulose (CMC)): 108 % of control | T/C [11]: 97 % of control
